Read-outs that look alike come from different tables or passages of the source.
What was measured:
Full-length human PRMT3 = molecular target: T1, Full-length human PRMT3 (Homo sapiens, UniProt O60678); assay: PRMT3 biochemical assay (3H-SAM Flashplate, peptide substrate)
T1 construct: GST-tagged PRMT3; made in house; host or cells: E. coli BL21(DE3) Gold (pGEX-KG)
Outline: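 Methylation of a biotinylated peptide (330 nM) by 0.5 nM GST-PRMT3 using 3H-SAM 100 nM with unlabelled SAM 1.8 uM, 20 mM Bicine pH 7.6, 2% DMSO, after 30 min enzyme–compound preincubation. Scintillation counts on streptavidin Flashplates normalised to 1 mM SAH and DMSO controls; curve fits with floating or fixed Hill slope.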

[1] = system: mono-methyl arginine in RKO cells; assay: RKO methylation assay, In Cell Western for mono-methyl arginine and DNA content; assay type: cell-based; conditions: Homo sapiens
[2] = In Cell Western, RKO cells, 72 hours, percent activation of mono-methyl arginine signal, read-out: EC30

T1 sequence (O60678 with tags, fused parts or gaps): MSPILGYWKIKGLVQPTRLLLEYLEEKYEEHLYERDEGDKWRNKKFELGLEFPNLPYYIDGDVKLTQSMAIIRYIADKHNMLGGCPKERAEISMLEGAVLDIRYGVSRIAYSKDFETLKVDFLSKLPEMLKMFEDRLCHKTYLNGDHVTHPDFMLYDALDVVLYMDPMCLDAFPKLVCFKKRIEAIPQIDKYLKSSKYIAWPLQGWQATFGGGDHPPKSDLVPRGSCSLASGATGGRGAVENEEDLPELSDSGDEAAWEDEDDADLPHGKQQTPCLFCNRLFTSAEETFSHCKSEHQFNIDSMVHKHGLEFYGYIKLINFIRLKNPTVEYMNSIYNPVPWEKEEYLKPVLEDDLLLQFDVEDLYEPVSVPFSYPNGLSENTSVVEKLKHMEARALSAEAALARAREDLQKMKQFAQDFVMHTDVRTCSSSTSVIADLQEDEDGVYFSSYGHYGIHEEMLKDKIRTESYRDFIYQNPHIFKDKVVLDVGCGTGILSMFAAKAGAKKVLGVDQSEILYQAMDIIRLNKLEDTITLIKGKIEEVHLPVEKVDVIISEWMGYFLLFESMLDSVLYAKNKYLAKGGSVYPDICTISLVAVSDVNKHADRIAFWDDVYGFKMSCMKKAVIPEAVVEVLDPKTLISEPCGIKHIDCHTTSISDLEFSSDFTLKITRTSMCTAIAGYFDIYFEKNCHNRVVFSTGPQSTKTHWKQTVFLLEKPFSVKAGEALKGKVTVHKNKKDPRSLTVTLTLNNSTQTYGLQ

Structure (SMILES) | IC50 (Full-length human PRMT3) [µM] | EC30 [1, 2] [µM] | EC30 ([1]; RKO, 72 h) [µM]
CN(CCN)Cc1cn[nH]c1-c1ccc(F)cc1 [Compound 1] | 1.01 to 3 | 3.01 to 12 | 
CNCCN(C)Cc1c[nH]nc1-c1ccc(F)cc1 [Compound 2, N^1-((3-(4-fluorophenyl)-1H-pyrazol-4-yl)methyl)-N^1,N^2-dimethylethane-1,2-diamine] | 3.01 to 10 |  | > 12
CN(CCN)Cc1cn(C)nc1-c1ccc(F)cc1 [Compound 3] | > 10 | > 12 | 
CN(CCN)Cc1cnn(C)c1-c1ccc(F)cc1 [Compound 4] | > 10 |  | > 12
CCN(CCNC)Cc1c[nH]nc1-c1ccc(F)cc1 [Compound 9] | 3.01 to 10 | > 12 | 
CNCCN(C)Cc1cnn(C)c1-c1ccc(F)cc1 [Compound 10] | > 10 | > 12 | 
CNCCN(C)Cc1cn(CC2CCOCC2)nc1-c1ccc(F)cc1 [Compound 11] | > 10 | > 12 | 
CNCCN(C)Cc1cnn(CC2CCOCC2)c1-c1ccc(F)cc1 [Compound 12] | > 10 | > 12 | 
CNCCN(C)Cc1c[nH]nc1-c1cccc(N)c1 [Compound 32] | 1.01 to 3 | > 12 | 
CNCCN(C)Cc1c[nH]nc1-c1ccc(CC#N)cc1 [Compound 34] | > 10 | > 12 | 
CNCCN(C)Cc1c[nH]nc1-c1ccccc1O [Compound 35] | > 10 | > 12 | 
CNCCN(C)Cc1c[nH]nc1-c1ccccc1Oc1ccccc1 [Compound 36] | > 10 | > 12 | 
CNCCN(C)Cc1c[nH]nc1-c1cccc(OC(F)(F)F)c1 [Compound 39] | > 10 | > 12 | 
CNCCN(C)Cc1c[nH]nc1-c1ccccc1NS(C)(=O)=O [Compound 41] | > 10 | > 12 | 
CNCCN(C)Cc1c[nH]nc1-c1cccc(NC(C)=O)c1 [Compound 42] | 1.01 to 3 | > 12 | 
CNCCN(C)Cc1c[nH]nc1-c1cccc(C(C)=O)c1 [Compound 44] | 3.01 to 10 | > 12 | 
CNCCN(C)Cc1c[nH]nc1-c1ccc(C(=O)c2ccccc2)cc1 [Compound 45] | 3.01 to 10 | < 3 | 
CNCCN(C)Cc1c[nH]nc1-c1ccccc1-c1ccccc1 [Compound 46] | > 10 | > 12 | 
CNCCN(C)Cc1c[nH]nc1-c1ccc(-c2ccccc2)cc1 [Compound 47] | 0.101 to 1 | < 3 | 
CNCCN(C)Cc1c[nH]nc1-c1ccccc1F [Compound 48] | > 10 | > 12 | 
CNCCN(C)Cc1c[nH]nc1-c1ccc(F)cc1F [Compound 49] | 3.01 to 10 | > 12 | 
CNCCN(C)Cc1c[nH]nc1-c1cc(F)ccc1F [Compound 50] | > 10 | > 12 | 
CNCCN(C)Cc1c[nH]nc1-c1ccc(F)c(F)c1 [Compound 51] | 3.01 to 10 | > 12 | 

Structure (SMILES) | IC50 (Full-length human PRMT3) [µM] | EC30 [1, 2] [µM] | EC30 ([1]; RKO, 72 h) [µM]
CNCCN(C)Cc1c[nH]nc1-c1ccc(OC)c(F)c1 [Compound 52] | 3.01 to 10 | > 12 | 
CNCCN(C)Cc1c[nH]nc1-c1cc(Cl)ccc1OC [Compound 53] | > 10 | > 12 | 
CNCCN(C)Cc1c[nH]nc1-c1cccc(OC)c1OC [Compound 54] | > 10 | > 12 | 
CNCCN(C)Cc1c[nH]nc1-c1ccc(OC)cc1OC [Compound 55] | > 10 | > 12 | 
CNCCN(C)Cc1c[nH]nc1-c1c(OC)cccc1OC [Compound 56] | > 10 | > 12 | 
CNCCN(C)Cc1c[nH]nc1-c1cccc2ccccc12 [Compound 57] | 3.01 to 10 | > 12 | 
CNCCN(C)Cc1c[nH]nc1-c1ccc2ccccc2c1 [Compound 58] | 3.01 to 10 | > 12 | 
CNCCN(C)Cc1cn(CCC(O)CO)nc1-c1ccc(F)cc1 (centres unmarked) [Compound 59] | > 10 | > 12 | 
CCNCCN(C)Cc1c[nH]nc1-c1ccc(F)cc1 [Compound 60] | > 10 | > 12 | 
COCCn1cc(CN(C)CCN(C)C)c(-c2ccc(F)cc2)n1 [Compound 61] | > 10 | > 12 | 
CCN(CCN)Cc1c[nH]nc1-c1ccc(F)cc1 [Compound 62] | 3.01 to 10 | > 12 | 
CCCN(CCN)Cc1c[nH]nc1-c1ccc(F)cc1 [Compound 63] | > 10 | > 12 | 
COCCn1ncc(CN(C)CCN(C)C)c1-c1ccc(F)cc1 [Compound 64] | > 10 |  | > 12
CN(CCN)Cc1cnn(CCO)c1-c1ccc(F)cc1 [Compound 65] | > 10 | > 12 | 
CN(CCN)Cc1cn(CCO)nc1-c1ccc(F)cc1 [Compound 66] | > 10 | > 12 | 
CC(C)Oc1ccc(-c2n[nH]cc2CN(C)CCN)cc1 [Compound 67] | 3.01 to 10 | > 12 | 
CN(CCN)Cc1c[nH]nc1-c1ccc(C#N)cc1 [Compound 68] | 3.01 to 10 | > 12 | 
CN(CCN)Cc1n[nH]cc1-c1ccc(F)cc1 [Compound 69] | > 10 | 3.01 to 12 | 
CN(CCN)Cc1c[nH]nc1-c1cccc(C#N)c1 [Compound 70] | > 10 | > 12 | 
CN(CCN)Cc1c[nH]nc1-c1cccc(F)c1 [Compound 71] | > 10 | 3.01 to 12 | 
CN(CCN)Cc1c[nH]nc1-c1ccccc1F [Compound 72] | > 10 | > 12 | 
CN(CCN)Cc1c[nH]nc1-c1ccccc1 [Compound 73] | > 10 | > 12 | 
CN(CCN)Cc1c[nH]nc1-c1ccc(C(C)(C)C)cc1 [Compound 74] | > 10 | 3.01 to 12 | 

Structure (SMILES) | IC50 (Full-length human PRMT3) [µM] | EC30 [1, 2] [µM] | EC30 ([1]; RKO, 72 h) [µM]
CC(C)N(CCN)Cc1c[nH]nc1-c1ccc(F)cc1 [Compound 75] | > 10 | > 12 | 
CN(CCN)Cc1cn(CC(O)CO)nc1-c1ccc(F)cc1 (centres unmarked) [Compound 76] | > 10 | > 12 | 
CN(CCN)Cc1cn(C2COC2)nc1-c1ccc(F)cc1 [Compound 77] | 3.01 to 10 |  | > 12
NCCN(Cc1c[nH]nc1-c1ccc(F)cc1)C1CC1 [Compound 78] | > 10 | 3.01 to 12 | 
CN(CCN)Cc1cn(CC2COC2)nc1-c1ccc(F)cc1 [Compound 79] | > 10 | > 12 | 
CN(CCN)Cc1cnn(CC2COC2)c1-c1ccc(F)cc1 [Compound 80] | > 10 | > 12 | 
CN(CCN)Cc1cnn(C2COC2)c1-c1ccc(F)cc1 [Compound 81] | > 10 | > 12 | 
CN(CCN)Cc1c[nH]nc1-c1ccc(N2CCNCC2)cc1 [Compound 82] | 1.01 to 3 | > 12 | 
CN(CCN)Cc1nn(C)cc1-c1ccc(C#N)cc1 [Compound 83] | > 10 | 3.01 to 12 | 
CN(CCN)Cc1c(-c2ccc(C#N)cc2)cnn1C [Compound 84] | > 10 | > 12 | 
CN(CCN)Cc1c[nH]nc1-c1ccc(C(F)(F)F)cc1C(F)(F)F [Compound 85] | > 10 |  | > 12
CN(CCN)Cc1c[nH]nc1-c1ccc(Cl)cc1Cl [Compound 86] | 3.01 to 10 | 3.01 to 12 | 
COc1ccc(-c2n[nH]cc2CN(C)CCN)c(OC)c1 [Compound 87] | > 10 | > 12 | 
Cc1ccc(-c2n[nH]cc2CN(C)CCN)c(C)c1 [Compound 88] | 3.01 to 10 | > 12 | 
CN(CCN)Cc1c[nH]nc1-c1ccc(F)cc1Cl [Compound 89] | 3.01 to 10 | 3.01 to 12 | 
Cc1ccc(-c2n[nH]cc2CN(C)CCN)c(Cl)c1 [Compound 90] | 3.01 to 10 | 3.01 to 12 | 
Cc1ccc(Cl)c(-c2n[nH]cc2CN(C)CCN)c1 [Compound 91] | > 10 | > 12 | 
CN(CCN)Cc1c[nH]nc1-c1ccc(C(F)(F)F)cc1 [Compound 92] | 3.01 to 10 | < 3 | 
CN(CCN)Cc1c[nH]nc1-c1ccc(OC(F)(F)F)cc1 [Compound 93] | 3.01 to 10 | < 3 | 
CN(CCN)Cc1c[nH]nc1-c1ccc(OC(F)F)cc1 [Compound 94] | 3.01 to 10 | < 3 | 
CC(C)Oc1ccc(-c2n[nH]cc2CN(C)CCN)cc1Cl [Compound 168] | 3.01 to 10 | < 3 | 

Source: US9346761B2, “Arginine methyltransferase inhibitors and uses thereof” (Epizyme, Inc., priority 2013, dated 2016)
